Reference: BigSolDB 2.1

C[C@@H]1CC[C@H]2[C@@H](C)C(=O)O[C@@H]3O[C@@]4(C)CC[C@@H]1[C@]32OO4
solubility (mole fraction)
Details | 284.15 K | 289.15 K | 295.15 K | 298.15 K | 304.15 K | 309.15 K | 314.15 K | 319.15 K | 323.15 K
in 2-butanone | 0.0163 | 0.0212 | 0.0292 | 0.0337 | 0.046 | 0.0585 | 0.0762 | 0.0919 | 0.117
in MTBE | 0.00109 | 0.00154 | 0.00234 | 0.00285 | 0.00421 | 0.00579 | 0.0079 | 0.0107 | 0.0136
in acetone | 0.00405 | 0.0053 | 0.0073 | 0.00848 | 0.0115 | 0.0147 | 0.0187 | 0.0236 | 0.0284
in acetonitrile | 0.00084 | 0.00112 | 0.00157 | 0.00184 | 0.00254 | 0.00329 | 0.00424 | 0.00544 | 0.00661
in ethanol | 0.00236 | 0.00305 | 0.00412 | 0.00475 | 0.00631 | 0.00796 | 0.01 | 0.0125 | 0.0149
in ethyl acetate | 0.00557 | 0.00784 | 0.0118 | 0.0142 | 0.0208 | 0.0283 | 0.0383 | 0.0514 | 0.0647
in isopropyl acetate | 0.00683 | 0.00838 | 0.0107 | 0.012 | 0.015 | 0.0182 | 0.0218 | 0.0261 | 0.0301
in methanol | 0.00056 | 0.00078 | 0.00117 | 0.00142 | 0.00207 | 0.00281 | 0.0038 | 0.00508 | 0.00639
in n-butanol | 0.00085 | 0.00127 | 0.00203 | 0.00253 | 0.00394 | 0.00563 | 0.00799 | 0.0112 | 0.0147
in n-heptane | 5.1e-05 | 7.2e-05 | 0.000113 | 0.00013 | 0.000202 | 0.000282 | 0.000383 | 0.000531 | 0.000684
in n-hexane | 5e-05 | 7e-05 | 0.000111 | 0.000132 | 0.000201 | 0.00028 | 0.000381 | 0.000534 | 0.000681
in toluene | 0.017 | 0.0226 | 0.0316 | 0.0369 | 0.0507 | 0.0656 | 0.0843 | 0.108 | 0.131
